According to ChEMBL document CHEMBL5038586, “Thiazolidinedione "Magic Bullets" Simultaneously Targeting PPARγ and HDACs: Design, Synthesis, and Investigations of their In Vitro and In Vivo Antitumor Effects” (J Med Chem, 2021):
Active and inactive are the calls of the source. The calls are words filed in the database; no cut-off is given here.

What was measured:
Histone deacetylase 4 [1] = target: T1, Histone deacetylase 4 (Homo sapiens, UniProt P56524); test: Inhibition of recombinant human HDAC4 using Boc-Lys (trifluoroacetyl)-AMC as substrate ay 35 uM preincubated for 1 hr followed by substrate addition and measured after 1 hr by micro plate reader analysis
T1 sequence (P56524 whole entry): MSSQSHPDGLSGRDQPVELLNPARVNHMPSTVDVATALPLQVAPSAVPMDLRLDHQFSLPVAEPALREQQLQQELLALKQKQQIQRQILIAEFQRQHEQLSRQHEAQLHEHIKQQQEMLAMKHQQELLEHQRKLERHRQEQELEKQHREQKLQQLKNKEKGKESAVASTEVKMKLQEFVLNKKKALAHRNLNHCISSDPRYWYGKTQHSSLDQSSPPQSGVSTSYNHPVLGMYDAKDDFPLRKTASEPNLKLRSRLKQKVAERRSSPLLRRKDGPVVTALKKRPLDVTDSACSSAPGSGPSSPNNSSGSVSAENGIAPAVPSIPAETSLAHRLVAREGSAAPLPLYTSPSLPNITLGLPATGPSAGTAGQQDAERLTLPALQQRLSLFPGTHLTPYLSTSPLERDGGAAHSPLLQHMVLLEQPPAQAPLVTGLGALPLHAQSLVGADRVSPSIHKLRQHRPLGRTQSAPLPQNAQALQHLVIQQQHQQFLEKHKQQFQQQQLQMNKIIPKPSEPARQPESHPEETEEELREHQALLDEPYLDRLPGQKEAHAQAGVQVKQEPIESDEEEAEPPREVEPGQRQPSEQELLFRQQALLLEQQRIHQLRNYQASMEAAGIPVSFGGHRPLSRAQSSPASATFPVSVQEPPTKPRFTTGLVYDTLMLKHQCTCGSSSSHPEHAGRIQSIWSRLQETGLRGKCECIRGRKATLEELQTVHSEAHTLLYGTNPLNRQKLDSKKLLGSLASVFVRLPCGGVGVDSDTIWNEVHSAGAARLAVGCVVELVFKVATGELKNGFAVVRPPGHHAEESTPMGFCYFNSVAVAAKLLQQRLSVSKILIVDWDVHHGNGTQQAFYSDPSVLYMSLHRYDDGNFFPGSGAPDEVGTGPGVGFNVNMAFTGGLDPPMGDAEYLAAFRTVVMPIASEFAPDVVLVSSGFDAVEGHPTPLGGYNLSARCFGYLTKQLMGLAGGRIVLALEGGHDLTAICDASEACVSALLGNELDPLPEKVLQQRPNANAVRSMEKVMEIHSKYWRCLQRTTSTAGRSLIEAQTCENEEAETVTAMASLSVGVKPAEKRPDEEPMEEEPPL

Histone deacetylase 4 [2] = target: T1, Histone deacetylase 4; test: Inhibition of recombinant human HDAC4 using Boc-Lys (trifluoroacetyl)-AMC as substrate preincubated for 1 hr followed by substrate addition and measured after 1 hr by micro plate reader analysis
[3] = target: T2, Histone deacetylase 8 (Homo sapiens) (UniProt Q9BY41); test: Inhibition of recombinant human HDAC8 using Boc-Lys (trifluoroacetyl)-AMC as substrate ay 35 uM preincubated for 1 hr followed by substrate addition and measured after 1 hr by micro plate reader analysis
T2 sequence (whole entry): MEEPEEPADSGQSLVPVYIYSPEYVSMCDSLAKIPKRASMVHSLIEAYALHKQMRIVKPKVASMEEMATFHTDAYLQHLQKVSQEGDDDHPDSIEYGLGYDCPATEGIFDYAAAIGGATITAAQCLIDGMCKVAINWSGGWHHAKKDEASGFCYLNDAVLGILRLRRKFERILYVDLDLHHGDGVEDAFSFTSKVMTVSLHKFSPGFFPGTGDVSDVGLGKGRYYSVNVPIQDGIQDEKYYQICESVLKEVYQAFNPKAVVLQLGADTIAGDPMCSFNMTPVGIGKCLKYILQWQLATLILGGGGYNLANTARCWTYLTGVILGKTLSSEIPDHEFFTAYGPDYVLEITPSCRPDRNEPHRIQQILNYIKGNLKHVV

Histone deacetylase 8 = target: T3, Histone deacetylase 8 (Homo sapiens, UniProt Q9BY41); test: Inhibition of recombinant human HDAC8 using Boc-Lys (trifluoroacetyl)-AMC as substrate preincubated for 1 hr followed by substrate addition and measured after 1 hr by micro plate reader analysis
T3 sequence (Q9BY41 whole entry): T2 sequence (whole entry)

MDA-MB-231 [4] = test: Cytotoxicity against human MDA-MB-231 cells assessed as cell death incubated for 20 hrs measured by DNS assay; type: functional
HeLa [5] = test: Cytotoxicity against human HeLa cells assessed as cell death incubated at 10 uM for 20 hrs measured by DNS assay; type: functional
CCRF-CEM [6] = test: Cytotoxicity against human CEM cells assessed as cell death incubated at 50 uM for 20 hrs measured by DNS assay; type: functional
HS27 [7] = test: Cytotoxicity against human HS-27 cells assessed as cell death incubated for 20 hrs measured by DNS assay; type: toxicity, cell-based; settings: hs27, 20 h
CCRF-CEM [8] = test: Cytotoxicity against human CEM cells assessed as cell death incubated for 20 hrs measured by DNS assay; type: functional
Ramos [9] = test: Cytotoxicity against human Ramos cells assessed as cell death incubated for 20 hrs measured by DNS assay; type: functional
SH-SY5Y [10] = test: Cytotoxicity against human SH-SY5Y cells assessed as cell death incubated for 20 hrs measured by DNS assay; type: functional
HeLa [11] = test: Cytotoxicity against human HeLa cells assessed as cell death incubated for 20 hrs measured by DNS assay; type: functional
MDA-MB-231 [12] = test: Cytotoxicity against human MDA-MB-231 cells assessed as cell death incubated at 10 uM for 20 hrs measured by DNS assay; type: functional
SH-SY5Y [13] = test: Cytotoxicity against human SH-SY5Y cells assessed as cell death incubated at 10 uM for 20 hrs measured by DNS assay; type: functional
CCRF-CEM [14] = test: Cytotoxicity against human CEM cells assessed as cell death incubated at 10 uM for 20 hrs measured by DNS assay; type: functional
[15] = Selectivity index, ratio of CC50 for human HS-27 cells to CC50 for human Ramos cells; type: functional
[16] = Selectivity index, ratio of CC50 for human HS-27 cells to CC50 for human CEM cells; type: functional
HS27 [17] = test: Cytotoxicity against human HS-27 cells assessed as cell death incubated at 10 uM for 20 hrs measured by DNS assay; type: toxicity, cell-based; settings: hs27, 20 h
HL-60 = test: Cytotoxicity against human HL-60 cells assessed as cell death incubated at 10 uM for 20 hrs measured by DNS assay; type: functional
Ramos [18] = test: Cytotoxicity against human Ramos cells assessed as cell death incubated at 10 uM for 20 hrs measured by DNS assay; type: functional
[19] = Selectivity index, ratio of CC50 for human HS-27 cells to CC50 for human HeLa cells; type: functional
[20] = Selectivity index, ratio of CC50 for human HS-27 cells to CC50 for human MDA-MB-231 cells; type: functional

| Compound | inhibition (Histone deacetylase 4 [1]) | IC50 (Histone deacetylase 4 [2]) [µM] | inhibition [3] | IC50 (Histone deacetylase 8) [µM] | further results |
| --- | --- | --- | --- | --- | --- |
| O=C(COc1ccc2cc(/C=C3/SC(=O)NC3=O)ccc2c1)Nc1ccc([N+](=O)[O-])cc1 |  | 1.7 |  | 4 | CC50 (MDA-MB-231 [4]): 55.8 µM |
| Cc1cc(NC(=O)COc2ccc3cc(/C=C4/SC(=O)NC4=O)ccc3c2)no1 | Active | 1.7 | Active | > 50 |  |
| O=C(CN1C(=O)S/C(=C/c2ccccn2)C1=O)Nc1nc2ccccc2s1 |  |  |  | 9.3 |  |
| CCc1ccc(CCOc2ccc(CC3SC(=O)NC3=O)cc2)nc1 (stereo not given) [PIOGLITAZONE] |  |  |  |  | Activity (HeLa [5]): 0%; Activity (CCRF-CEM [6]): 0% |
| O=C(COc1ccc2cc(/C=C3/SC(=O)NC3=O)ccc2c1)Nc1c(F)cc(F)cc1Br |  | 1.1 |  | > 50 | CC50 (HS27 [7]): 39.9 µM; CC50 (MDA-MB-231 [4]): 9.8 µM; CC50 (CCRF-CEM [8]): 9.6 µM; CC50 (Ramos [9]): 9.6 µM; CC50 (SH-SY5Y [10]): 21.8 µM; CC50 (HeLa [11]): 10.4 µM |
| O=C(COc1ccc2cc(/C=C3/SC(=O)NC3=O)ccc2c1)Nc1cccc(Cl)c1 | Active | 3.8 | Active | > 50 | Activity (MDA-MB-231 [12]): 2.84%; Activity (SH-SY5Y [13]): 10.79%; Activity (CCRF-CEM [14]): >40%; Selectivity Index [15]: >10; CC50 (CCRF-CEM [8]): 10.6 µM; Activity (HeLa [5]): 29.68%; Selectivity Index [16]: >10; Activity (HS27 [17]): 22.56%; Activity (HL-60): 27.58%; CC50 (Ramos [9]): 9.1 µM; Activity (Ramos [18]): >40% |
| O=C(CCCCCCC(=O)Nc1ccccc1)NO [VORINOSTAT] |  |  |  |  | CC50 (CCRF-CEM [8]): 2.5 µM; CC50 (HeLa [11]): 2.8 µM |
| O=C(COc1ccc2ccccc2c1/C=C1\SC(=O)NC1=O)Nc1ccc([N+](=O)[O-])cc1 |  | 15 |  | 2.3 |  |
| O=C(COc1ccc2cc(/C=C3/SC(=O)NC3=O)ccc2c1)Nc1cccc(C(F)(F)F)c1 | Active | 2.5 | Active | > 50 | Activity (MDA-MB-231 [12]): 5.96%; Activity (SH-SY5Y [13]): 0%; Activity (CCRF-CEM [14]): 25.87%; Selectivity Index [15]: >10; Activity (HeLa [5]): 39.09%; Activity (HL-60): 19.55%; CC50 (Ramos [9]): 6.2 µM; Activity (Ramos [18]): >40% |
| Cc1cccc2sc(NC(=O)COc3ccc4cc(/C=C5/SC(=O)NC5=O)ccc4c3)nc12 | Active | 1.2 | Active | 5.8 |  |
| COc1cccc(NC(=O)COc2ccc3cc(/C=C4/SC(=O)NC4=O)ccc3c2)c1 | Active | 1.6 | Active | 7.6 | Selectivity Index [19]: >10; Activity (MDA-MB-231 [12]): >40%; Activity (SH-SY5Y [13]): 0%; CC50 (MDA-MB-231 [4]): 9.8 µM; Activity (CCRF-CEM [14]): >40%; Selectivity Index [15]: >10; CC50 (CCRF-CEM [8]): 10.7 µM; Selectivity Index [20]: >10; Selectivity Index [16]: >10; Activity (HS27 [17]): 24.69%; Activity (HL-60): 0%; CC50 (Ramos [9]): 9.3 µM; CC50 (HeLa [11]): 10.4 µM; Activity (Ramos [18]): >40% |
| CCOc1ccc2nc(NC(=O)COc3ccc4cc(/C=C5/SC(=O)NC5=O)ccc4c3)sc2c1 | Active | 3.6 | Active | 17 |  |

Continued, in another order:

| inhibition (Histone deacetylase 4 [1]) | IC50 (Histone deacetylase 4 [2]) [µM] | inhibition [3] | IC50 (Histone deacetylase 8) [µM] | Compound | further results |
| --- | --- | --- | --- | --- | --- |
| Active | 0.84 | Active | 7.2 | O=C(COc1ccc2cc(/C=C3/SC(=O)NC3=O)ccc2c1)Nc1cccc(F)n1 |  |
| Active | 0.42 | Active | 2.7 | O=C(COc1ccc2cc(/C=C3/SC(=O)NC3=O)ccc2c1)Nc1nc2ccccc2s1 |  |
| Active | 4.9 | Active | > 50 | O=C(COc1ccc2cc(/C=C3/SC(=O)NC3=O)ccc2c1)Nc1ccc(Br)c(Br)c1 |  |
| Active | 1.1 | Active | > 50 | Cc1ccc(NC(=O)COc2ccc3cc(/C=C4/SC(=O)NC4=O)ccc3c2)cc1Cl |  |
| Active | 4 | Active | > 50 | O=C(COc1ccc2cc(/C=C3/SC(=O)NC3=O)ccc2c1)Nc1cc(Cl)cc(C(F)(F)F)c1 |  |
| Active | 4.7 | Active | > 50 | COc1ccc(NC(=O)COc2ccc3cc(/C=C4/SC(=O)NC4=O)ccc3c2)cc1 |  |
| Active | 1.1 | Active | 7.5 | Cc1cccc(NC(=O)COc2ccc3cc(/C=C4/SC(=O)NC4=O)ccc3c2)n1 |  |
| Active | 3.9 | Active | > 50 | O=C(COc1ccc2cc(/C=C3/SC(=O)NC3=O)ccc2c1)Nc1ccc(F)cc1F |  |
| Active | 1.6 | Active | 6.6 | O=C(COc1ccc2cc(/C=C3/SC(=O)NC3=O)ccc2c1)Nc1ccc(F)cc1 |  |
|  | 1.9 |  | > 50 | O=C(COc1ccc2cc(/C=C3/SC(=O)NC3=O)ccc2c1)Nc1ccc(Br)cc1F | CC50 (HS27 [7]): 57 µM; CC50 (CCRF-CEM [8]): 40.9 µM; CC50 (SH-SY5Y [10]): 16 µM |
| Active | 2.1 | Active | 4.5 | O=C(COc1ccc2cc(/C=C3/SC(=O)NC3=O)ccc2c1)Nc1ccccc1 |  |
| Active | 17 | Active | > 50 | O=C(COc1ccc2cc(/C=C3/SC(=O)NC3=O)ccc2c1)Nc1ccccn1 |  |
| Active | 5.5 | Active | > 50 | O=C(COc1ccc2cc(/C=C3/SC(=O)NC3=O)ccc2c1)Nc1ccc(Cl)c(Cl)c1 |  |
|  | 0.55 |  | 7.4 | Cc1cc(Br)ccc1NC(=O)COc1ccc2cc(/C=C3/SC(=O)NC3=O)ccc2c1 | CC50 (SH-SY5Y [10]): 91.1 µM; CC50 (HeLa [11]): 9.9 µM |
|  | 2.9 |  | 16 | O=C(COc1ccc2cc(/C=C3/SC(=O)NC3=O)ccc2c1)Nc1ccc(Br)cc1 | CC50 (HeLa [11]): 10.1 µM |
